Source: patent publication US20100216779A1 (GLAXOSMITHKLINE LLC, priority 2007, published 2010)

Test system: various cell lines of different tumor origins
Test: Inhibition of cell proliferation, InCell Analyzer assay
Format: cell-based
Procedure: C. Inhibition of Cell Proliferation
For InCell Analyser assay, various cell lines of different tumor origins were grown to 70-80% confluency in appropriate culture media containing 10% fetal bovine serum at 37° C. in a 5% CO2 incubator. On day-1, cells were seeded at 2 densities in 384-well plates and incubated at 37° C. overnight. Stock compound plates were prepared in advance which contained dimethyl sulfoxide (DMSO) alone and a 9-point half-log decreasing dose range of the compound of Example 22 in DMSO. The compound plates were stored at −80° C. and each plate was only thawed once and used. On day 0, the main assay plates received compound or DMSO via a sonic delivery system (ECHO). The highest final concentration of compound of the dose range in the culture plates was 10 uM. These plates were cultured at 37° C. for 3 days. […] On day 3, the compound treated plates were stained and fixed to measure proliferation, apoptosis, and mitotic index using an InCell1000 analyser. A nuclear stain was used to identify cells in the wells. By counting the number of nuclei, the proliferation index of compound treated groups were calculated as a percentage relative to the DMSO control, which was set to 100%. The IC50 values were calculated using model 205 in ExcelFit.

Measured: IC50

COc1cc(N2CCC(N3CCCCC3)CC2)ccc1Nc1nccc(-c2c(-c3cccc(C(=O)Nc4c(F)cccc4F)c3)nc3ccccn23)n1 [Example 22, 3-[3-(2-{[4-(1,4′-bipiperidin-1′-yl)-2-(methyloxy)phenyl]amino}-4-pyrimidinyl)imidazo[1,2-a]pyridin-2-yl]-N-(2,6-difluorophenyl)benzamide]
> 5 µM: 5637, Bladder | CEM/C1, CEM/C1, acute lymphoblastic leukaemia | CESS, AML | COLO 704, COLO-704, Ovary | CRO-AP5, CRO-AP5, lymphoma - B cell unspecified | EM-2, CML blast phase | H4, glioma | HT-3, Cervix | Homo sapiens, BHT-101, BHT-101, Thyroid | Homo sapiens, BXPC-3, BxPC-3, Pancreas | Homo sapiens, CAKI-1, Caki-1, Kidney | Homo sapiens, CAL-27, Cal27, H&N | Homo sapiens, COLO-829, Colo-829, Skin | Homo sapiens, DBTRG-05MG, glioma | Homo sapiens, DoTc2-4510, DoTc2-4510, Cervix | Homo sapiens, HCC1937, HCC1937, Breast | Homo sapiens, HCC2157, HCC2157, Breast | Homo sapiens, HCC2218, HCC2218, Breast | Homo sapiens, HEC-1-A, Uterus | Homo sapiens, HEL 92.1.7, HEL-92.1.7, erythroleukemia | Homo sapiens, HOP-62, HOP-62, Lung | Homo sapiens, HPAF-II, HPAFII, Pancreas | Homo sapiens, HT1197, HT1197, Bladder | Homo sapiens, HT-1376, HT1376, Bladder | Homo sapiens, HeLa, Cervix | Homo sapiens, Hs746T, Stomach | Homo sapiens, HuP-T4, HuP-T4, Pancreas | Homo sapiens, K562, K-562, CML | Homo sapiens, KATO III, KATOIII, Stomach | Homo sapiens, KM12, KM12, Colon | Homo sapiens, LOX IMVI, Skin | Homo sapiens, MES-SA, Sarcoma | Homo sapiens, Malme-3M, Skin | Homo sapiens, NCI-H146, NCI-H146, Lung
1 to 5 µM: A7, Skin | AGS, Stomach | B-cell, BC-1, lymphoma - B cell unspecified | B-cell, BC-2, lymphoma - B cell unspecified | B-cell, BC-3, lymphoma - B cell unspecified | B-cell, DB, lymphoma - diffuse large B cell | C3A, Liver | C32TG, Skin | C-4I, Cervix | DK-MG, glioma | ES2, Ovary | GCT, Sarcoma | HN5, H&N | Homo sapiens, 639-V, Bladder | Homo sapiens, 647-V, Bladder | Homo sapiens, 769-P, Kidney | Homo sapiens, 786-0, 786-0, Kidney | Homo sapiens, A101D, Skin | Homo sapiens, A 172, A172, glioma | Homo sapiens, A204, A204, Sarcoma - rhabdomyosarcoma | Homo sapiens, A498, A-498, Kidney | Homo sapiens, A-375, A375, Skin | Homo sapiens, A-427, A427, Lung | Homo sapiens, ACHN, Kidney | Homo sapiens, AN3-CA, AN3CA, Uterus | Homo sapiens, ARH-77, ARH-77, Myeloma - plasma cell | Homo sapiens, BPH-1, BPH1, Prostate | Homo sapiens, BT-20, BT-20, Breast | Homo sapiens, BT-474, BT474, Breast | Homo sapiens, BV-173, BV-173, CML blast phase | Homo sapiens, BeWo, Placenta | Homo sapiens, C-4-II, C-4II, Cervix | Homo sapiens, C-33-A, C-33A, Cervix | Homo sapiens, CAKI-2, Caki-2, Kidney | Homo sapiens, CAL-54, CAL-54, Kidney | Homo sapiens, CAL-62, CAL-62, Thyroid | Homo sapiens, CCF-STTG1, CCF-STTG1, glioma | Homo sapiens, CGTH-W-1, CGTH-W-1, Thyroid | Homo sapiens, CHL-1, CHL-1, Skin | Homo sapiens, CRO-AP2, CRO-AP2, lymphoma - B cell unspecified | Homo sapiens, Caov-3, CAOV-3, Ovary | Homo sapiens, Capan-2, Capan-2, Pancreas | Homo sapiens, D283 Med, D283Med, medulloblastoma | Homo sapiens, DU-4475, DU4475, Breast | Homo sapiens, Detroit 562, Detroit562, H&N | Homo sapiens, EFM-19, EFM-19, Breast | Homo sapiens, EKVX, Lung | Homo sapiens, FaDu, H&N | Homo sapiens, G-401, G-401, kidney | Homo sapiens, G-402, G-402, Kidney | Homo sapiens, HCC38, HCC38, Breast | Homo sapiens, HCC70, HCC70, Breast | Homo sapiens, HCC1143, HCC1143, Breast | Homo sapiens, HCC1395, HCC1395, Breast | Homo sapiens, HCC1954, HCC1954, Breast | Homo sapiens, HCC 2998, HCC-2998, Colon | Homo sapiens, HEC-1B, HEC-1-B, Uterus | Homo sapiens, HMCB, Skin | Homo sapiens, HOP-92, HOP-92, Lung | Homo sapiens, Hep3B, Liver | Homo sapiens, HepG2, HepG2, Liver | Homo sapiens, HuT78, Hut78, lymphoma - cutaneous T cell | Homo sapiens, J-RT3-T3-5, J.RT3-T3.5, acute lymphoblastic leukaemia | Homo sapiens, LS174T, Colon | Homo sapiens, MDA-MB-175-VII, Breast | Homo sapiens, MDA-MB-231, MDA-MB-231, Breast | Homo sapiens, MDA-MB-435, MDA-MB-435, Breast (Melanoma) | Homo sapiens, MDA-MB-453, MDA-MB-453, Breast | Homo sapiens, MDA-MB-468, MDA-MB-468, Breast | Homo sapiens, MOLT-16, MOLT-16, acute lymphoblastic leukaemia | Homo sapiens, MV4-11, MV-4-11, acute leukaemia of ambiguous lineage | Homo sapiens, NCI-H69, NCI-H69, Lung | Homo sapiens, NCI-H82, NCI-H82, Lung | Homo sapiens, NCI-H209, NCI-H209, Lung
< 1 µM: CML-T1, CML-T1, CML blast phase | HOS, Sarcoma | Homo sapiens, A673, A673, Sarcoma | Homo sapiens, A2780, A2780, Ovary | Homo sapiens, A-431, A-431, Skin | Homo sapiens, ASPC1, AsPC-1, Pancreas | Homo sapiens, BE(2)-C, BE(2)C, Brain | Homo sapiens, BFTC-905, BFTC-905, Bladder | Homo sapiens, CAPAN-1, Capan-1, Pancreas | Homo sapiens, CHP-212, CHP-212, neuroblastoma | Homo sapiens, GDM-1, GDM-1, AML | Homo sapiens, HPAC, Pancreas | Homo sapiens, HT-29, HT-29, Colon | Homo sapiens, HT-1080, HT-1080, Sarcoma - fibrosarcoma | Homo sapiens, IGROV-1, IGROV1, Ovary | Homo sapiens, JEG-3, JEG-3, Placenta | Homo sapiens, LS-1034, LS1034, Colon | Homo sapiens, MC-IXC, neuroblastoma | Homo sapiens, MCF7, MCF7, Breast | Homo sapiens, MCF-10A, MCF10a, Breast (Normal) | Homo sapiens, MIA PaCa-2, MiaPaCa, Pancreas
